Measurements taken from patent publication US20230085307A1, “PYRIDAZINONE COMPOUND AND HERBICIDE” (NISSAN CHEMICAL CORPORATION, priority 2019, published 2023).

What was measured:
windgrass [1] = test: Test Example 5: herbicidal effect by foliage application, plastic box (Table 20, symbol L); assay type: in vivo, windgrass (Apera spica-venti); settings: foliage application, 320 g/ha, three weeks after application
Method in brief: (§1)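 Foliar spray test: emulsion formulation diluted in water to a set application rate, sprayed onto 14-day-old plants raised in diluvial soil at 25° C to 30° C under glass. Both herbicidal effect and crop effect rated visually three weeks later.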

redroot pigweed [2] = test: Test Example 5: herbicidal effect by foliage application, plastic box (Table 20, symbol N); assay type: in vivo, redroot pigweed (Amaranthus retroflexus); settings: foliage application, 320 g/ha, three weeks after application
Method in brief: as §1

velvetleaf [3] = test: Test Example 4: herbicidal effect by soil treatment (Table 19, symbol M); assay type: in vivo, velvetleaf (Abutilon theophrasti); settings: amount of applied herbicide 320 g/ha
Method in brief: (§2)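 Herbicidal effect was rated 3 weeks after treatment, using the scoring criteria of an earlier test. The compound, formulated as an emulsion and diluted in water to a set herbicide amount, had been sprayed uniformly on soil over freshly sown seeds. Growth took place in a greenhouse at 25° C. to 30° C.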

oval-leafed pondweed = test: Test Example 2: herbicidal activity, application during weed generation under submerged conditions (Table 17, symbol C); assay type: in vivo, oval-leafed pondweed (Monochoria vaginalis); settings: AAH 320 g/ha; application during weed generation, submerged conditions
Method in brief: (§3)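 In this pot test, flooded alluvial soil (water depth 4 cm) holds all three species sown as a mixture. Once seedlings have one to two leaves, the compound's emulsion, thinned with water to the intended dose, is poured on the water; grading follows after three weeks on the earlier criteria.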

barnyard grass [4] = test: Test Example 4: herbicidal effect by soil treatment (Table 19, symbol H); assay type: in vivo, barnyard grass (Echinochloa crus-galli); settings: amount of applied herbicide 320 g/ha
Method in brief: as §2

Italian ryegrass [5] = test: Test Example 5: herbicidal effect by foliage application, plastic box (Table 20, symbol K); assay type: in vivo, Italian ryegrass (Lolium multiflorum); settings: foliage application, 320 g/ha, three weeks after application
Method in brief: as §1

green foxtail [6] = test: Test Example 4: herbicidal effect by soil treatment (Table 19, symbol G); assay type: in vivo, green foxtail (Setaria viridis); settings: amount of applied herbicide 320 g/ha
Method in brief: as §2

Italian ryegrass [7] = test: Test Example 4: herbicidal effect by soil treatment (Table 19, symbol K); assay type: in vivo, Italian ryegrass (Lolium multiflorum); settings: amount of applied herbicide 320 g/ha
Method in brief: as §2

blackgrass [8] = test: Test Example 5: herbicidal effect by foliage application, plastic box (Table 20, symbol J); assay type: in vivo, blackgrass (Alopecurus myosuroides); settings: foliage application, 320 g/ha, three weeks after application
Method in brief: as §1

southern crabgrass [9] = test: Test Example 4: herbicidal effect by soil treatment (Table 19, symbol F); assay type: in vivo, southern crabgrass (Digitaria ciliaris); settings: amount of applied herbicide 320 g/ha
Method in brief: as §2

rice flat sedge = test: Test Example 3: herbicidal effect by foliage application, Wagner pot (Table 18, symbol E); assay type: in vivo, rice flat sedge (Cyperus iria); settings: 320 g/ha
Method in brief: (§4)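 Plants were sown in alluvial soil held under 0.1–0.5 cm standing water and grown 14 days in a greenhouse at 25–30 °C. An emulsifiable formulation, water-diluted to the set dose, was then sprayed onto the foliage, and effects were scored three weeks later using previously defined criteria.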

wild oat [10] = test: Test Example 4: herbicidal effect by soil treatment (Table 19, symbol I); assay type: in vivo, wild oat (Avena fatua); settings: amount of applied herbicide 320 g/ha
Method in brief: as §2

persian speedwell [11] = test: Test Example 4: herbicidal effect by soil treatment (Table 19, symbol R); assay type: in vivo, Persian speedwell (Veronica persica); settings: amount of applied herbicide 320 g/ha
Method in brief: as §2

redroot pigweed [12] = test: Test Example 4: herbicidal effect by soil treatment (Table 19, symbol N); assay type: in vivo, redroot pigweed (Amaranthus retroflexus); settings: amount of applied herbicide 320 g/ha
Method in brief: as §2

Japanese bulrush = test: Test Example 2: herbicidal activity, application during weed generation under submerged conditions (Table 17, symbol B); assay type: in vivo, Japanese bulrush (Schoenoplectus juncoides); settings: AAH 320 g/ha; application during weed generation, submerged conditions
Method in brief: as §3

southern crabgrass [13] = test: Test Example 5: herbicidal effect by foliage application, plastic box (Table 20, symbol F); assay type: in vivo, southern crabgrass (Digitaria ciliaris); settings: foliage application, 320 g/ha, three weeks after application
Method in brief: as §1

false cleavers [14] = test: Test Example 5: herbicidal effect by foliage application, plastic box (Table 20, symbol Q); assay type: in vivo, false cleavers (Galium spurium); settings: foliage application, 320 g/ha, three weeks after application
Method in brief: as §1

Chinese sprangletop = test: Test Example 3: herbicidal effect by foliage application, Wagner pot (Table 18, symbol D); assay type: in vivo, chinese sprangletop (Leptochloa chinensis); settings: 320 g/ha
Method in brief: as §4

velvetleaf [15] = test: Test Example 5: herbicidal effect by foliage application, plastic box (Table 20, symbol M); assay type: in vivo, velvetleaf (Abutilon theophrasti); settings: foliage application, 320 g/ha, three weeks after application
Method in brief: as §1

green foxtail [16] = test: Test Example 5: herbicidal effect by foliage application, plastic box (Table 20, symbol G); assay type: in vivo, green foxtail (Setaria viridis); settings: foliage application, 320 g/ha, three weeks after application
Method in brief: as §1

lambsquarters [17] = test: Test Example 5: herbicidal effect by foliage application, plastic box (Table 20, symbol O); assay type: in vivo, lambsquarters (Chenopodium album); settings: foliage application, 320 g/ha, three weeks after application
Method in brief: as §1

windgrass [18] = test: Test Example 4: herbicidal effect by soil treatment (Table 19, symbol L); assay type: in vivo, windgrass (Apera spica-venti); settings: amount of applied herbicide 320 g/ha
Method in brief: as §2

wild oat [19] = test: Test Example 5: herbicidal effect by foliage application, plastic box (Table 20, symbol I); assay type: in vivo, wild oat (Avena fatua); settings: foliage application, 320 g/ha, three weeks after application
Method in brief: as §1

barnyard grass [20] = test: Test Example 5: herbicidal effect by foliage application, plastic box (Table 20, symbol H); assay type: in vivo, barnyard grass (Echinochloa crus-galli); settings: foliage application, 320 g/ha, three weeks after application
Method in brief: as §1

persian speedwell [21] = test: Test Example 5: herbicidal effect by foliage application, plastic box (Table 20, symbol R); assay type: in vivo, Persian speedwell (Veronica persica); settings: foliage application, 320 g/ha, three weeks after application
Method in brief: as §1

blackgrass [22] = test: Test Example 4: herbicidal effect by soil treatment (Table 19, symbol J); assay type: in vivo, blackgrass (Alopecurus myosuroides); settings: amount of applied herbicide 320 g/ha
Method in brief: as §2

chickweed [23] = test: Test Example 5: herbicidal effect by foliage application, plastic box (Table 20, symbol P); assay type: in vivo, common chickweed (Stellaria media); settings: foliage application, 320 g/ha, three weeks after application
Method in brief: as §1

chickweed [24] = test: Test Example 4: herbicidal effect by soil treatment (Table 19, symbol P); assay type: in vivo, common chickweed (Stellaria media); settings: amount of applied herbicide 320 g/ha
Method in brief: as §2

late watergrass = test: Test Example 2: herbicidal activity, application during weed generation under submerged conditions (Table 17, symbol A); assay type: in vivo, late watergrass (Echinochloa oryzicola); settings: AAH 320 g/ha; application during weed generation, submerged conditions
Method in brief: as §3

false cleavers [25] = test: Test Example 4: herbicidal effect by soil treatment (Table 19, symbol Q); assay type: in vivo, false cleavers (Galium spurium); settings: amount of applied herbicide 320 g/ha
Method in brief: as §2

lambsquarters [26] = test: Test Example 4: herbicidal effect by soil treatment (Table 19, symbol O); assay type: in vivo, lambsquarters (Chenopodium album); settings: amount of applied herbicide 320 g/ha
Method in brief: as §2

barnyard grass [27] = test: Test Example 3: herbicidal effect by foliage application, Wagner pot (Table 18, symbol H); assay type: in vivo, barnyard grass (Echinochloa crus-galli); settings: 320 g/ha
Method in brief: as §4

## CCCC(=O)Oc1c(C)nn(C)c(=O)c1-c1c(-c2ccc3c(c2)OCO3)sc2ccccc12 [1-088]
Windgrass [1]
  herbicidal effect grade, L: windgrass: 0 (Herbicidal rate of 5% or less (almost no effect))
Redroot pigweed [2]
  herbicidal effect grade, N: redroot pigweed: 3 (Herbicidal rate of 40% or more and less than 70%)
Velvetleaf [3]
  herbicidal effect rating, M: velvetleaf: 0 (Herbicidal rate of 5% or less (almost no effect))
oval-leafed pondweed
  herbicidal effect rating, C: oval-leafed pondweed: 4 (Herbicidal rate of 70% or more and less than 90%)
Barnyard grass [4]
  herbicidal effect rating, H: barnyard grass: 4 (Herbicidal rate of 70% or more and less than 90%)
Italian ryegrass [5]
  herbicidal effect grade, K: Italian ryegrass: 3 (Herbicidal rate of 40% or more and less than 70%)
Green foxtail [6]
  herbicidal effect rating, G: green foxtail: 4 (Herbicidal rate of 70% or more and less than 90%)
Italian ryegrass [7]
  herbicidal effect rating, K: Italian ryegrass: 1 (Herbicidal rate of 5% or more and less than 20%)
Blackgrass [8]
  herbicidal effect grade, J: blackgrass: 0 (Herbicidal rate of 5% or less (almost no effect))
Southern crabgrass [9]
  herbicidal effect rating, F: southern crabgrass: 3 (Herbicidal rate of 40% or more and less than 70%)
Rice flat sedge
  herbicidal effect on E (rice flat sedge), rating 0-5: 5 (Herbicidal rate of 90% or more (almost completely withered))
Wild oat [10]
  herbicidal effect rating, I: wild oat: 0 (Herbicidal rate of 5% or less (almost no effect))
Persian speedwell [11]
  herbicidal effect rating, R: persian speedwell: 5 (Herbicidal rate of 90% or more (almost completely withered))
Redroot pigweed [12]
  herbicidal effect rating, N: redroot pigweed: 0 (Herbicidal rate of 5% or less (almost no effect))
Japanese bulrush
  herbicidal effect rating, B: Japanese bulrush: 3 (Herbicidal rate of 40% or more and less than 70%)
Southern crabgrass [13]
  herbicidal effect grade, F: southern crabgrass: 3 (Herbicidal rate of 40% or more and less than 70%)
False cleavers [14]
  herbicidal effect grade, Q: false cleavers: 0 (Herbicidal rate of 5% or less (almost no effect))
Chinese sprangletop
  herbicidal effect on D (Chinese sprangletop), rating 0-5: 3 (Herbicidal rate of 40% or more and less than 70%)
Velvetleaf [15]
  herbicidal effect grade, M: velvetleaf: 5 (Herbicidal rate of 90% or more (almost completely withered))
Green foxtail [16]
  herbicidal effect grade, G: green foxtail: 4 (Herbicidal rate of 70% or more and less than 90%)
Lambsquarters [17]
  herbicidal effect grade, O: lambsquarters: 3 (Herbicidal rate of 40% or more and less than 70%)
Windgrass [18]
  herbicidal effect rating, L: windgrass: 0 (Herbicidal rate of 5% or less (almost no effect))
Wild oat [19]
  herbicidal effect grade, I: wild oat: 0 (Herbicidal rate of 5% or less (almost no effect))
Barnyard grass [20]
  herbicidal effect grade, H: barnyard grass: 3 (Herbicidal rate of 40% or more and less than 70%)
Persian speedwell [21]
  herbicidal effect grade, R: persian speedwell: 5 (Herbicidal rate of 90% or more (almost completely withered))
Blackgrass [22]
  herbicidal effect rating, J: blackgrass: 0 (Herbicidal rate of 5% or less (almost no effect))
Chickweed [23]
  herbicidal effect grade, P: chickweed: 5 (Herbicidal rate of 90% or more (almost completely withered))
Chickweed [24]
  herbicidal effect rating, P: chickweed: 4 (Herbicidal rate of 70% or more and less than 90%)
Late watergrass
  herbicidal effect rating, A: late watergrass: 1 (Herbicidal rate of 5% or more and less than 20%)
False cleavers [25]
  herbicidal effect rating, Q: false cleavers: 0 (Herbicidal rate of 5% or less (almost no effect))
Lambsquarters [26]
  herbicidal effect rating, O: lambsquarters: 3 (Herbicidal rate of 40% or more and less than 70%)
Barnyard grass [27]
  herbicidal effect on H (barnyard grass), rating 0-5: 5 (Herbicidal rate of 90% or more (almost completely withered))
